US20040038369A1, “Airway-specific trypsin-like enzymes and method of using the same” (priority 2000, published 2004)
Counter-ions that a name gives are not always drawn.

Columns and labels:
recombinant AST = target: T1, recombinant AST (Homo sapiens, UniProt O60235); assay: AST-inhibiting activity of compound; format: biochemical; details: substrate Boc-Phe-Ser-Arg-MCA, 24° C., 6 minutes
T1 construct: 232 amino acids from Ile at the 187th position to Ile at the 418th position; made in house; host or cells: insect cells (Tn-5), recombinant baculovirus
T1 sequence (O60235 187-418): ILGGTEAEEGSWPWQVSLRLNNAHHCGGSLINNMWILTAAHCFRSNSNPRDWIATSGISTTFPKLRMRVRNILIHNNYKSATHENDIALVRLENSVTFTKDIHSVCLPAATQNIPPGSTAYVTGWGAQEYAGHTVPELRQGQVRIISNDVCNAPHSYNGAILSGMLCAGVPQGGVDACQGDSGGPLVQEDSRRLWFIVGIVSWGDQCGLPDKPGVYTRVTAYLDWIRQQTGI
T1 sequence (O60235 162-186 partner limits assumed): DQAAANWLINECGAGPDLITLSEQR
Experimental: 0.05 mL of a 50 mM Tris-HCl buffer solution (pH 8.6) containing 2 ng/mL of the recombinant AST and 0.01% of Tween 20 was mixed with 2 μL of a DMSO solution containing nafamostat mesylate or gabexate mesylate as an evaluation target compound in various concentrations, and with 0.05 mL of a 50 mM Tris-HCl buffer solution (pH 8.6) containing 30 μM of a trypsin synthesis substrate: Boc-Phe-Ser-Arg-MCA, and incubated at 24° C. for 6 minutes. The quantities of the produced AMC were assayed by a fluorometry (fluorescent light: 460 nm, exciting light: 380 nm) with the passage of time, and the enzymatic activity-inhibiting ability of the compound was evaluated.

BEAS-2B = assay: Calcium influx in airway epithelial cell strain BEAS-2B; format: cell-based; details: AST 2 units/mL; trypsin 10 to 100 units/mL; SFLLRNamide 100 μM
Experimental: The Ca^2+ influx due to the AST was examined with respect to an airway epithelial cell strain BEAS-2B. The confluent cells adhered to six 10 cm dishes were used. The cells were peeled with a 10 mM EDTA/HEPES-Tyrode buffer solution for 10 minutes, recovered by a centrifugal treatment at 1,500 rpm at room temperature for 5 minutes, and then resuspended in 10 mL of HEPES-Tyrode buffer solution-Ca^2+ (−) pH 7.4. The recovered cells (about 1.1×10^7 cells) were suspended in 11 mL of HEPES-Tyrode buffer solution (1 μg/mL, containing Fura2-AM) to load the Fura2-AM at 37° C. for 30 minutes. The cells were recovered by a centrifugal treatment at 1,500 rpm at room temperature for 5 minutes, twice washed with HEPES-Tyrode buffer solution-Ca^2+ (−) pH 7.4, and then resuspended in 11 mL of HEPES-Tyrode buffer solution-Ca^2+ (−) pH 7.4. The cell suspension was mixed with […] of 1M CaCl2 to give a final concentration of 1 mM CaCl2, and then incubated in a shaded state at room temperature for 5 minutes. The prepared Fura2-AM-loaded infected cells were dispensed into a 96 well plate in a volume of 100 μL/well, further subjected to the dispensation of HEPES-Tyrode buffer solution-Ca^2+ (+) pH 7.4 in a volume of 80 μL/well, and then assayed with Fluorescence Drug Screening System (Hamamatsu Photonics Co.). […]

[1] = system: normal human airway epithelial cells; assay: Calcium influx in normal human airway epithelial cells; format: cell-based; details: AST 2 units/mL; trypsin 10 to 100 units/mL; SFLLRNamide 100 μM
Experimental: The Ca^2+ influx due to the AST was examined with confluent normal epithelial cells adhered to three 10 cm dishes (purchased from BioWhittaker Corp.). The cells were peeled with a 10 mM EDTA/HEPES-Tyrode buffer solution for 10 minutes, recovered by a centrifugal treatment at 800 rpm at room temperature for 5 minutes, and then resuspended in 5 mL of HEPES-Tyrode buffer solution-Ca^2+ (−) pH 7.4. The recovered cells (about 1.2×10^6 cells) were suspended in 5 mL of HEPES-Tyrode buffer solution (1 μg/mL, containing Fura2-AM) to load the Fura2-AM to the cells at 37° C. for one hour. The cells were recovered by a centrifugal treatment at 800 rpm at room temperature for 5 minutes, twice washed with HEPES-Tyrode buffer solution-Ca^2+ (−) pH 7.4, and then resuspended in […] of HEPES-Tyrode buffer solution-Ca^2+ (−) pH 7.4. The cell suspension was mixed with 5 μL of 1M CaCl2 to give a final concentration of 1 mM CaCl2, and then incubated in a shaded state at room temperature for 5 minutes. The prepared Fura2-AM-loaded infected cells were dispensed into a 96 well plate in a volume of 100 μL/well, further subjected to the dispensation of HEPES-Tyrode buffer solution-Ca^2+ (+) pH 7.4 in a volume of 80 μL/well, and then assayed with Fluorescence Drug Screening System (Hamamatsu Photonics Co.). […]

PAR-2 = target: T2, PAR-2 (Homo sapiens, UniProt P55085); assay: Calcium influx in PAR-2-expressing insect cells; format: cell-based; details: AST 2 units/mL; trypsin, thrombin 0.1 to 10 units/mL; SFLLRNamide, SLIGRL 10 to 100 μM
T2 construct: expressed in transfected cells; host or cells: Sf9 insect cells infected with recombinant baculovirus VL-PAR (pVL1393)
T2 sequence (P55085 26-397): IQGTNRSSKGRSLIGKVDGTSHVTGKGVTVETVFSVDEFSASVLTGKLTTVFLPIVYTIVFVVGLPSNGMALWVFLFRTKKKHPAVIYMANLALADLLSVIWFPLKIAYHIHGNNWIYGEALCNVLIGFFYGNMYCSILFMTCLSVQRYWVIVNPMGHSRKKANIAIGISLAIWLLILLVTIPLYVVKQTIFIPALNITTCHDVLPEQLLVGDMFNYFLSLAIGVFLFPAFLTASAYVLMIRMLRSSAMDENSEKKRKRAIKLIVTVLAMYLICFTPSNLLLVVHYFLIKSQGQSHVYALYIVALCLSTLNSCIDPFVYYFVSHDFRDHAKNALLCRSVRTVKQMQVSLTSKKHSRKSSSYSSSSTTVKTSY
Experimental: The above-obtained recombinant baculovirus VL-PAR for expressing the PAR was used to infect 1.0×10^7 Sf9 cells sowed on a 75 cm^2 flask at an MOI=2, and was then left and stationally cultured at 27° C. for 40 hours. After the culture, the infected cells were recovered and then subjected to a calcium influx experiment to-confirm the function of the PAR.
The recovered infected cells (about 5×10^6 cells) were once washed with HEPES-Tyrode buffer solution-Ca^2+ (−) pH 7.4, and then suspended in 5 mL of HEPES-Tyrode buffer solution (containing Fura2-AM, 1 μg/mL) to load the Fura2-AM on the cells at 27° C. for 30 minutes. The suspension was centrifuged at 800 rpm at room temperature for 5 minutes to recover the cells. The cells were twice washed with HEPES-Tyrode buffer solution-Ca^2+ (−) pH 7.4 and then resuspended in 5 mL of HEPES-Tyrode buffer solution-Ca^2+ (−) pH 7.4. The cell suspension was mixed with 5 μL of 1M CaCl2 to give a final concentration of 1 mM CaCl2, and then incubated in a shaded state at room temperature for 5 minutes. The prepared Fura2-AM-loaded infected cells were dispensed into a 96 well plate in a volume of 100 μL/well, further subjected to the dispensation of HEPES-Tyrode buffer solution-C^2+ (+) pH 7.4 in a volume of 80 μL/well, and then assayed with a Fluorescence Drug Screening System (made by Hamamatsu Photonics Co.). Namely, [intensity of 500 nm fluorescent light due to 340 nm exciting light]/[intensity of 500 nm fluorescent light due to 380 nm exciting light] (reflecting the concentration of calcium in the cells) was assayed.

Row | Compound | IC50 (recombinant AST) | Ca2+ influx (BEAS-2B) | Ca2+ influx [1] | Ca2+ influx (PAR-2)
1 | N=C(N)c1ccc2cc(OC(=O)c3ccc(N=C(N)N)cc3)ccc2c1 [Nafamostat mesylate, nafamostat mesylate] | 230 nM |  |  | 
2 | SFLLRNamide [reference compound] |  | observed | observed | observed
3 | gabexate mesylate | 140 nM |  |  | 
